Laboratory results reported in ChEMBL document CHEMBL1157047, “Designing inhibitors against fructose 1,6-bisphosphatase: exploring natural products for novel inhibitor scaffolds” (Eur J Med Chem, 2010).

What was measured:
[1] = target: T1, Fructose-1,6-bisphosphatase 1 (Homo sapiens, UniProt P09467); assay: Inhibition of human liver fructose-1,6-bisphosphatase expressed in Escherichia coli BL21 (DE3) assessed as reduction of NADP+ to NADPH by phosphoglucose isomerase/glucose-6-phosphate dehydrogenase coupled assay
T1 sequence (P09467 whole entry): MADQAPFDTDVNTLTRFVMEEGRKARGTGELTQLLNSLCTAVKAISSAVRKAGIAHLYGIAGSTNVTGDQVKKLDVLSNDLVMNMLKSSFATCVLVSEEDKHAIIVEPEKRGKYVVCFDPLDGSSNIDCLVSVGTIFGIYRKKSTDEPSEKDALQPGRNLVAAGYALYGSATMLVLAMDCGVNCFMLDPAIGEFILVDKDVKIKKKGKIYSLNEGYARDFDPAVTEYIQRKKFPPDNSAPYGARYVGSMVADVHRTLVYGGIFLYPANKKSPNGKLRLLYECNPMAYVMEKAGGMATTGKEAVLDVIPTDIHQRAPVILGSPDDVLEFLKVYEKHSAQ

[2] = target: T2, Fructose-1,6-bisphosphatase 1 (Sus scrofa, UniProt P00636); assay: Inhibition of pig kidney fructose-1,6-bisphosphatase expressed in Escherichia coli BL21 (DE3) assessed as reduction of NADP+ to NADPH by phosphoglucose isomerase/glucose-6-phosphate dehydrogenase coupled assay
T2 sequence (P00636 whole entry): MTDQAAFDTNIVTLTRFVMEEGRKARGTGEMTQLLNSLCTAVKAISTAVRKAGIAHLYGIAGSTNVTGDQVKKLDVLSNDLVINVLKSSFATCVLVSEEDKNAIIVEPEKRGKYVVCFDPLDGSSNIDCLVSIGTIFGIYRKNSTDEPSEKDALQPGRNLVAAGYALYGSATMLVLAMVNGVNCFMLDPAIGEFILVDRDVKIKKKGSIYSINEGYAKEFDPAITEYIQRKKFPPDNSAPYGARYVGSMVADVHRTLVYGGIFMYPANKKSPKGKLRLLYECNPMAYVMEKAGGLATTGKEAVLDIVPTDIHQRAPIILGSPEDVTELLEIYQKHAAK

Compound	IC50 ([1]; read-out: IC50) [µM]	IC50 [2]	IC50 [1]
CC(=O)C1=C(O)C=C2Oc3c(C(C)=O)c(O)c(C)c(O)c3[C@@]2(C)C1=O [(+)-USNIC ACID]	371		
Nc1ncnc2c1ncn2[C@@H]1O[C@H](COP(=O)(O)O)[C@@H](O)[C@H]1O [ADENOSINE PHOSPHATE]	9.8		
Oc1cc(O)c2c(c1)oc1cc(O)cc(O)c12		Not Active	Not Active
